Where a chain is given by its changes, count along the chain named.
Key:
[1] = biological target: T1, FNS II (cv. Chat Noir, GQ489008) (Dahlia pinnata, UniProt G3BGL6); experiment: […]-flavanone conversion to flavone, TLC radioscan, recombinant yeast preparation; assay type: biochemical; conditions: NADPH; labelled compound
T1 construct: full-length ORF in pYES2.1/V5-His-TOPO, expressed in S. cerevisiae INVSc1
T1 sequence (G3BGL6 1-514): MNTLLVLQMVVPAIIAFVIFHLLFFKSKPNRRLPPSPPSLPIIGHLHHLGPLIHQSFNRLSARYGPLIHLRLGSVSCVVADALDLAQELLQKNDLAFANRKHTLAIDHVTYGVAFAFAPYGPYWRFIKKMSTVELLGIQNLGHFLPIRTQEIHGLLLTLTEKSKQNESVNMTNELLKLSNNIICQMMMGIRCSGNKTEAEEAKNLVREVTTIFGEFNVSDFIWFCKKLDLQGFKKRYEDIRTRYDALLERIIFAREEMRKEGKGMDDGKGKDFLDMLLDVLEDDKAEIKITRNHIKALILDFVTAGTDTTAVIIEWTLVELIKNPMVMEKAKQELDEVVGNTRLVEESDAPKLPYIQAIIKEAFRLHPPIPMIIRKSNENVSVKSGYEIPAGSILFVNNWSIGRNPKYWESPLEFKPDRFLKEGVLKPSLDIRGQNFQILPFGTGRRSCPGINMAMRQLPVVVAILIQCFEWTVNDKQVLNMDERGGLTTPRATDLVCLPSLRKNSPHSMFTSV

[2] = test system: T2, recombinant FNS II (cv. Rubens GQ479808 and cv. Chat Noir GQ489009); experiment: […]-flavanone conversion to luteolin, TLC radioscan, recombinant yeast preparation; assay type: biochemical, Dahlia pinnata; conditions: NADPH; pH optimum 7.50; 25-30°C optimum; labelled compound; clone (GQ479808 or GQ489009) not told; read-out: apparent Km
T2 construct: full-length ORF in pYES2.1/V5-His-TOPO, expressed in S. cerevisiae INVSc1

[3] = biological target: T3, FNS II (cv. Rubens, GQ479809) (Dahlia pinnata, UniProt G8Z372); experiment: […]-flavanone conversion to flavone, TLC radioscan, recombinant yeast preparation; assay type: biochemical; conditions: NADPH; labelled compound
T3 construct: full-length ORF in pYES2.1/V5-His-TOPO, expressed in S. cerevisiae INVSc1
T3 sequence (G8Z372 1-513): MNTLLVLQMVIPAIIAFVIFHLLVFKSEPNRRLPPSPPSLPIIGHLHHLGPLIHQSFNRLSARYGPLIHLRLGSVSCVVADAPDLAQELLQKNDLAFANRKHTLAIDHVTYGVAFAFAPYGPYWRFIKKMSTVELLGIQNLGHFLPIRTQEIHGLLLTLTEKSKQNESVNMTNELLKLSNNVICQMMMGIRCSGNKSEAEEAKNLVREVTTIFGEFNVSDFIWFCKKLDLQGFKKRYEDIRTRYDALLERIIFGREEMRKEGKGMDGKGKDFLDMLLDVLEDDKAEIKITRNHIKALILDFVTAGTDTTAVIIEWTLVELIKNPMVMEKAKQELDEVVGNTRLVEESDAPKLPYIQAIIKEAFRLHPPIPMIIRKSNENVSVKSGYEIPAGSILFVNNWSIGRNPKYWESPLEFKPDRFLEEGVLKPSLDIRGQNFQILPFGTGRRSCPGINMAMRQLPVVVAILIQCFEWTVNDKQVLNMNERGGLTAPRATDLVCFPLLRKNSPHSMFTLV

[4] = biological target: T4, FNS II (cv. Aurora's Kiss, GQ489010) (Dahlia pinnata, UniProt G3BGL8); experiment: as above; assay type: biochemical; conditions: NADPH; labelled compound
T4 construct: full-length ORF in pYES2.1/V5-His-TOPO, expressed in S. cerevisiae INVSc1
T4 sequence (G3BGL8 1-513): T3 sequence (G8Z372 1-513) with V24F, K162E, S168G, E421K, N482D, A489T, L512S

[5] = biological target: T5, FNS II (cv. Alva's Supreme, GQ479807) (Dahlia pinnata, UniProt G8Z370); experiment: as above; assay type: biochemical; conditions: NADPH; labelled compound
T5 construct: full-length ORF in pYES2.1/V5-His-TOPO, expressed in S. cerevisiae INVSc1
T5 sequence (G8Z370 1-514): T1 sequence (G3BGL6 1-514) with V11I, L83P, C184Y, L499F, S501L

[6] = biological target: T6, FNS II (cv. White Alva, GQ489011) (Dahlia pinnata, UniProt G3BGL9); experiment: as above; assay type: biochemical; conditions: NADPH; labelled compound
T6 construct: full-length ORF in pYES2.1/V5-His-TOPO, expressed in S. cerevisiae INVSc1
T6 sequence (G3BGL9 1-513): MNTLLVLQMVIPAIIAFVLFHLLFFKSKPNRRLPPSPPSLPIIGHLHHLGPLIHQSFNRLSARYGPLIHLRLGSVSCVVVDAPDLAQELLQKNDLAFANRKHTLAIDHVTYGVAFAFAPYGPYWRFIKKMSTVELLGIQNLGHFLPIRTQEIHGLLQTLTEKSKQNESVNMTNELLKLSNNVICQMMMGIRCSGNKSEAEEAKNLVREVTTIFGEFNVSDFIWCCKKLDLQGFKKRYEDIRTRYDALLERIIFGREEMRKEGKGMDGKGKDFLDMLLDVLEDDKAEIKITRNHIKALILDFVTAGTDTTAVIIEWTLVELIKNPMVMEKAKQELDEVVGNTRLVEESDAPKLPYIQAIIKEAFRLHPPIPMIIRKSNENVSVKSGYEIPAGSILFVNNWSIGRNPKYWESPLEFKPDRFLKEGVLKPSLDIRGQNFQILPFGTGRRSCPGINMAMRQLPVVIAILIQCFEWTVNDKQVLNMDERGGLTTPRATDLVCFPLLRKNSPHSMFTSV

[7] = biological target: T7, FNS II (cv. Feuerschein, GQ479806) (Dahlia pinnata, UniProt G8Z369); experiment: as above; assay type: biochemical; conditions: NADPH; labelled compound
T7 construct: gene DvFNS1; full-length ORF in pYES2.1/V5-His-TOPO, expressed in S. cerevisiae INVSc1
T7 sequence (G8Z369 1-514): T1 sequence (G3BGL6 1-514) with V11I, L83P, D266E, L499F, S501L

[8] = test system: T2, recombinant FNS II (cv. Rubens GQ479808 and cv. Chat Noir GQ489009); experiment: […]-flavanone conversion to apigenin, TLC radioscan, recombinant yeast preparation; assay type: biochemical, Dahlia pinnata; conditions: NADPH; pH optimum 6.50; 25-30°C optimum; labelled compound; clone (GQ479808 or GQ489009) not told; read-out: apparent Km

O=C1C[C@@H](c2ccc(O)c(O)c2)Oc2cc(O)cc(O)c21 [eriodictyol]
14C-flavanone conversion to flavone, TLC radioscan, recombinant yeast preparatio [1]: formation of apigenin and luteolin from naringenin and eriodictyol, respectively
Km [2]: 4.2 µM
14C-flavanone conversion to flavone, TLC radioscan, recombinant yeast preparatio [3]: formation of apigenin and luteolin from naringenin and eriodictyol, respectively
14C-flavanone conversion to flavone, TLC radioscan, recombinant yeast preparatio [4]: formation of apigenin and luteolin from naringenin and eriodictyol, respectively
14C-flavanone conversion to flavone, TLC radioscan, recombinant yeast preparatio [5]: formation of apigenin and luteolin from naringenin and eriodictyol, respectively
14C-flavanone conversion to flavone, TLC radioscan, recombinant yeast preparatio [6]: formation of apigenin and luteolin from naringenin and eriodictyol, respectively
14C-flavanone conversion to flavone, TLC radioscan, recombinant yeast preparatio [7]: formation of apigenin and luteolin from naringenin and eriodictyol, respectively

O=C1C[C@@H](c2ccc(O)cc2)Oc2cc(O)cc(O)c21 [naringenin]
14C-flavanone conversion to flavone, TLC radioscan, recombinant yeast preparatio [1]: formation of apigenin and luteolin from naringenin and eriodictyol, respectively
Km [8]: 3.86 µM
14C-flavanone conversion to flavone, TLC radioscan, recombinant yeast preparatio [3]: formation of apigenin and luteolin from naringenin and eriodictyol, respectively
14C-flavanone conversion to flavone, TLC radioscan, recombinant yeast preparatio [4]: formation of apigenin and luteolin from naringenin and eriodictyol, respectively
14C-flavanone conversion to flavone, TLC radioscan, recombinant yeast preparatio [5]: formation of apigenin and luteolin from naringenin and eriodictyol, respectively
14C-flavanone conversion to flavone, TLC radioscan, recombinant yeast preparatio [6]: formation of apigenin and luteolin from naringenin and eriodictyol, respectively
14C-flavanone conversion to flavone, TLC radioscan, recombinant yeast preparatio [7]: formation of apigenin and luteolin from naringenin and eriodictyol, respectively

Reference: article PMC3557166, “'Le Rouge et le Noir': A decline in flavone formation correlates with the rare color of black dahlia (Dahlia variabilis hort.) flowers” (BMC Plant Biology, 2012)
